50 molecules from patent US6221865A, “Inhibitors of protein isoprenyl transferases” (priority 1998, dated 2001) can be followed below.

Where a name gives a salt, the structure may show the parent alone.

The target of this assay is T1, protein farnesyltransferase (Rattus norvegicus, UniProt Q02293+Q04631).
T1 construct: The enzyme is purified according to Reiss, Y., et al., Cell, 62: 81-88 (1990), utilizing steps one through three; from tissue; host or cells: rat brain
The assay is described as follows: Inhibition of farnesyltransferase (scintillation proximity assay, rat brain enzyme, biotin-K Ras B fragment substrate). Type of assay: biochemical. The following applies: for % inhibition of farnesyltransferase at 1 × 10^-7 M: 1 × 10^-7 M (Table 3); for inhibition at 0.1 µM: read-out: % inhibition at 0.1 μM (*), Table 6, * = 0.1 μM (footnote), title prints 0.1 mM; for inhibition at 1 µM: read-out: % inhibition of farnesyltransferase at 1 × 10^-6 M; for inhibition at 1 µM / % inhibition of farnesyltransferase at 1 × 10^-6 M: 1 × 10^-6 M (Table 2); for % inhibition of farnesyltransferase at 1 × 10^-8 M: 1 × 10^-8 M (Table 4); for % inhibition of farnesyltransferase at 1 × 10^-5 M: 1 × 10^-5 M (Table 1). An outline of the steps:
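Enzyme from rat brain, partly purified (steps one to three), assayed by SPA kit using 0.1 mM final biotin-K Ras B peptide as prenyl acceptor rather than biotin-lamin. Activity given as percent inhibition.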
For orientation: SPA uses beads or plates that emit light when radiolabelled molecules are held near them.

T1 sequence (Q02293 whole entry, one chain of several): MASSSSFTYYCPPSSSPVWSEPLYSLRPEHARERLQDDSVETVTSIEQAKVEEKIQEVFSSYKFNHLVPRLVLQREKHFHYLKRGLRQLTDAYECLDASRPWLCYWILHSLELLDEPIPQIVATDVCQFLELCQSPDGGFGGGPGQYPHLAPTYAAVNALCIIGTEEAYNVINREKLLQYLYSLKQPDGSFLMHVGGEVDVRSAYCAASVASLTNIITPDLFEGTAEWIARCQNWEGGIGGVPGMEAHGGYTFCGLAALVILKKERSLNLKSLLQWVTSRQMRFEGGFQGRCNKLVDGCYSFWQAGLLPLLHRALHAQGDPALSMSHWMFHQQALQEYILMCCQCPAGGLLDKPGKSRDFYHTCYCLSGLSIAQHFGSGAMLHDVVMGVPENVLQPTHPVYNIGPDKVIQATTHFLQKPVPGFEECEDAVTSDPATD

Turning to `CSCC[C@H](NC(=O)c1ccc(COCc2ccc(-c3ccc(Cl)cc3)o2)cc1-c1ccccc1C)C(=O)O` [Example 443], the “% inhibition of farnesyltransferase at 1 × 10^-7 M” value (from here on “% inhibition … at 1 × 10^-7 M”) is 97%. For `CSCC[C@H](NC(=O)c1ccc(CC(CCC2CCCCC2)C(=O)OC(C)(C)C)cc1-c1ccccc1C)C(=O)O` (some centres unmarked) [Example 1301, N-[4-(2-(2-cyclohexylethyl)t-butylpropion-3-yl)-2-(2-methylphenyl)benzoyl]methionine Lithium Salt], the inhibition (commonly the share of the control response that was lost under treatment) at 0.1 µM is 97%.

In the case of `CSCC[C@H](NC(=O)c1ccc(CN2CCC[C@H]2COCc2ccccc2)cc1-c1ccccc1C)C(=O)O` [Example 824, N-[4-(2-benzyloxymethylpyrrolidin-1-ylmethyl)-2-(2-methylphenyl)benzoyl]methionine], the inhibition at 1 µM was found to be 90%. In the case of `CSCC[C@H](NC(=O)c1ccc(CN(Cc2ccc3c(c2)OCO3)c2cnccn2)cc1-c1ccccc1C)C(=O)O` [Example 838], the “% inhibition of farnesyltransferase at 1 × 10^-8 M” value (“% inhibition … at 1 × 10^-8 M” below) turned out to be 92%. `CSCC[C@H](NC(=O)c1ccc(C=CCc2ccccc2)cc1-c1ccccc1C)C(=O)O` (mixture of isomers) [Example 469, N-[4-(3-phenylprop-1-enyl)-2-(2-methylphenyl)benzoyl]methionine (1:1 mixture of olefin isomers)]: the inhibition at 1 µM came to 92%. `CSCC[C@H](NC(=O)c1ccc(CNc2ccc3ncccc3c2)cc1-c1ccccc1)C(=O)O` [Example 708]: the “% inhibition of farnesyltransferase at 1 × 10^-5 M” value (shortened to “% inhibition … at 1 × 10^-5 M”) stood at 76%. As to `CSCC[C@H](NC(=O)c1ccc(CSc2nc(O)cc(Cc3ccccc3)n2)cc1-c1ccccc1C)C(=O)O` [Example 744], the “% inhibition of farnesyltransferase at 1 × 10^-6 M” value (“% inhibition … at 1 × 10^-6 M” for short) turned out to be 84%.

`CSCC[C@H](NC(=O)c1ccc(CNc2cc(C(C)(C)C)[nH]n2)cc1-c1ccccc1)C(=O)O` [Example 381]: the “% inhibition … at 1 × 10^-5 M” value is recorded as 79%. As to `CSCC[C@H](NC(=O)c1ccc(CCc2cnc(Oc3ccccc3)cn2)cc1-c1ccccc1C)C(=O)O` [Example 813, lithium salt], the inhibition at 1 µM came out at 95%.

Turning to `CSCC[C@H](NC(=O)c1ccc(COCc2ccc(-c3ccc(SC)cc3)o2)cc1-c1ccccc1C)C(=O)[O-].[Li+]` [Example 447], the “% inhibition … at 1 × 10^-7 M” value came out at 91%.

Consider `CSCC[C@H](NC(=O)c1ccc(CN[C@H](CSc2ccccc2)CC2CCCCC2)cc1-c1ccccc1C)C(=O)O` [Example 623], for which the “% inhibition … at 1 × 10^-7 M” value is reported as 96%.

As to `Cc1ccccc1-c1cc(CNC(C)(C)Cc2ccccc2)ccc1C(=O)N[C@@H](CCS(C)(=O)=O)C(=O)O` [Example 311], the inhibition at 1 µM is 97%. As for `CCSCC(CC1CCCCC1)NCc1cc(-c2ccccc2C)c(C(=O)N[C@@H](CCSC)C(=O)O)cc1OC` (some centres unmarked) [Example 1337], the % inhibition (commonly the percentage by which the read-out fell short of the control) at 0.01 μM (**) (Table 6, ** = 0.01 μM (footnote), title prints 0.01 mM) is reported as 83%. For the molecule `CSCC[C@H](NC(=O)c1ccc(CNc2cccc(Oc3ccccc3)c2)cc1-c1ccccc1)C(=O)O` [Example 686], the “% inhibition … at 1 × 10^-5 M” value is 48%.

With `CSCC[C@H](NC(=O)c1ccc(CNCCSc2ccccc2)cc1-c1ccccc1)C(=O)O` [Example 667], the “% inhibition … at 1 × 10^-6 M” value turned out to be 83%. Same read-out and setting: the value for `CSCC[C@H](NC(=O)c1ccc(CNCc2ccc(N)cc2)cc1-c1ccccc1)C(=O)O` [Example 653] was 62%. For `CSCC[C@H](NC(=O)c1ccc(CN(CCC2CCCCC2)C(C)=O)cc1-c1ccccc1C)C(=O)[O-].[Li+]` [Example 609], the “% inhibition … at 1 × 10^-7 M” value was found to be 95%. With `CSCC[C@H](NC(=O)c1ccc(CN(C(C)C)C2(Cc3ccccc3)CCCC2)cc1-c1ccccc1C)C(=O)O` [Example 343], the inhibition at 1 µM is 72%.

Consider `COc1cccc(CN(Cc2ccc(C(=O)N[C@@H](CCSC)C(=O)O)c(-c3ccccc3C)c2)c2ccccc2)c1` [Example 779], for which the “% inhibition … at 1 × 10^-8 M” value is on record as 70%. Take `CSCC[C@H](NC(=O)c1ccc(OC/C=C(\C)CC/C=C(\C)CCC=C(C)C)cc1-c1ccccc1C)C(=O)O` [Example 547]: the “% inhibition … at 1 × 10^-6 M” value was 91%. For `CSCC[C@H](NC(=O)c1ccc(COCc2ccc(-c3ccccc3F)o2)cc1-c1ccccc1C)C(=O)[O-].[Li+]` [Example 437], the “% inhibition … at 1 × 10^-7 M” value was found to be 89%. Take `CSCC[C@H](NC(=O)c1ccc(CN(CCc2ccccc2)Cc2ccccc2)cc1-c1ccccc1C)C(=O)O` [Example 513]: the “% inhibition … at 1 × 10^-6 M” value was 96%.

In the case of `CSCC[C@H](NC(=O)c1ccc(CN[C@@H](CO)C2CCCCC2)cc1-c1ccccc1C)C(=O)O` [Example 604], the “% inhibition … at 1 × 10^-7 M” value is 86%. As to `CCSC[C@H](CC1CCCCC1)NCc1ccc(C(=O)N[C@@H](CCSC)C(=O)O)c(-c2ccccc2C)c1` [Example 403], the “% inhibition … at 1 × 10^-6 M” value is reported as 99%.

For the molecule `COC(=O)[C@H](CCSC)NC(=O)c1ccc(NC(=O)[C@@H]2CSCN2)cc1-c1ccccc1.Cl` [Example 164], the “% inhibition … at 1 × 10^-6 M” value stood at 92%.

Take `CSCC[C@H](NC(=O)c1ccc(CN2CCC(O)C2)cc1-c1ccccc1)C(=O)O` (some centres unmarked) [Example 291]: the inhibition at 1 µM worked out at 23%. With `CSCC[C@H](NC(=O)c1ccc(/C=C/c2ccc(Oc3ccc(Cl)cc3)cc2)cc1-c1ccccc1C)C(=O)O` [Example 1016, N-[4-(2-(4-(4-chlorophenoxy)phenyl)ethen-1-yl)-2-(2-methylphenyl)benzoyl]methionine lithium salt], the inhibition at 0.1 µM is 92%. In the case of `CSCC[C@H](NC(=O)c1ccc(CNCCC2CCCCC2)cc1-c1ccccc1C)C(=O)O.O=C(O)C(F)(F)F` [Example 607], the “% inhibition … at 1 × 10^-6 M” value amounted to 96%. `CSCC[C@H](NC(=O)c1ccc(CN[C@@H](/C=C\CC(C)C)CC2CCCCC2)cc1-c1ccccc1)C(=O)O` [Example 665]: the “% inhibition … at 1 × 10^-6 M” value is 55%.

As for `COc1ccc(CCOCc2ccc(C(=O)N[C@@H](CCSC)C(=O)O)c(-c3ccccc3C)c2)cc1` [Example 937], the “% inhibition … at 1 × 10^-6 M” value worked out at 95%. Still for that read-out and setting: the value for `CSCCC(NC(=O)c1ccc(NC(=O)C2CCCNC2)cc1-c1ccccc1)C(=O)O` (centres unmarked) [Example 231] was 50%. For `CSCC[C@H](NC(=O)c1ccc(COCc2cnc(C(C)(C)C)s2)cc1-c1ccccc1C)C(=O)[O-].[Li+]` [Example 895], the “% inhibition … at 1 × 10^-7 M” value worked out at 92%. In the case of `CSCC[C@H](NC(=O)c1ccc(S(=O)(=O)N(Cc2ccccc2)c2ccccc2)cc1-c1ccccc1C)C(=O)O` [Example 768, N-[4-(N-Benzyl-N-phenylaminosulfonyl)-2-(2-methylphenyl)benzoyl]methionine lithium salt], the inhibition at 1 µM is 67%.

Take `CSCC[C@H](NC(=O)c1ccc(NC(=O)C2CCC(=O)N2)cc1-c1ccccc1)C(=O)O` (some centres unmarked) [Example 202]: the “% inhibition … at 1 × 10^-6 M” value was found to be 31%. `CCCCN(Cc1cc(F)cc(F)c1)OCc1ccc(C(=O)N[C@@H](CCSC)C(=O)O)c(-c2ccccc2C)c1` [Example 1176, N-[4-N-Butyl-N-(3,5-difluorobenzyl)aminooxymethyl-2-(2-methylphenyl)benzoyl]methionine lithium salt]: the inhibition at 0.1 µM is 97%. Consider `CSCC[C@H](NC(=O)c1ccc(COC2CCN(Cc3ccccc3)CC2)cc1-c1ccccc1C)C(=O)O` [Example 807], for which the “% inhibition … at 1 × 10^-6 M” value stood at 90%. Regarding `CSCC[C@H](NC(=O)c1ccc(CNc2ccccc2N(C)C)cc1-c1ccccc1)C(=O)O` [Example 672], the “% inhibition … at 1 × 10^-5 M” value was 48%. Regarding `CCSC[C@H](CC1CCCCC1)N(Cc1ccc(C(=O)N[C@@H](CCSC)C(=O)O)c(-c2ccccc2C)c1)C(=O)OC(C)(C)C` [Example 948], the “% inhibition … at 1 × 10^-7 M” value was determined as 75%. In the case of `CSCC[C@H](NC(=O)c1ccc(CNCCCCc2ccccc2)cc1-c1ccccc1)C(=O)O` [Example 718], the “% inhibition … at 1 × 10^-5 M” value was 40%. Turning to `CSCC[C@H](NC(=O)c1ccc(CNc2cccc(C(N)=O)c2)cc1-c1ccccc1)C(=O)O` [Example 682], the “% inhibition … at 1 × 10^-6 M” value came to 31%.

In the case of `CSCC[C@H](NC(=O)c1ccc(CN(CCC2CCCCC2)Cc2cncs2)cc1-c1ccccc1C)C(=O)O` [Example 986], the “% inhibition … at 1 × 10^-8 M” value was 95%. As for `CSCC[C@H](NC(=O)c1ccc(CN(Cc2ccccc2)c2ccccc2[N+](=O)[O-])cc1-c1ccccc1C)C(=O)[O-].[Li+]` [Example 849], the “% inhibition … at 1 × 10^-7 M” value turned out to be 66%. Regarding `CSCC[C@H](NC(=O)c1ccc(CNc2cc(C)on2)cc1-c1ccccc1)C(=O)O` [Example 372], the “% inhibition … at 1 × 10^-5 M” value is 69%. In the case of `CCn1cc(NCc2ccc(C(=O)N[C@@H](CCSC)C(=O)O)c(-c3ccccc3)c2)c(=O)n1CC` [Example 364], the “% inhibition … at 1 × 10^-5 M” value turned out to be 69%.

Turning to `CSCC[C@H](NC(=O)c1ccc(CN(Cc2cncs2)S(C)(=O)=O)cc1-c1ccccc1C)C(=O)O` [Example 878], the “% inhibition … at 1 × 10^-6 M” value worked out at 95%. Same read-out and setting: the value for `CSCC[C@H](NC(=O)c1ccc(CNc2ccccc2C(N)=O)cc1-c1ccccc1)C(=O)O` [Example 644] was 54%. As to `COc1ccc(Br)c(C(=O)Nc2ccc(C(=O)N[C@@H](CCSC)C(=O)O)c(-c3ccccc3)c2)c1` [Example 754], the “% inhibition … at 1 × 10^-5 M” value is on record as 40%. Take `CSCC[C@H](NC(=O)c1ccc(NCC(CO)(Cc2ccccc2)Cc2ccccc2)cc1-c1ccccc1C)C(=O)O` [Example 475]: the “% inhibition … at 1 × 10^-6 M” value came out at 21%.

On to `COc1ccc(NCc2ccc(C(=O)N[C@@H](CCSC)C(=O)O)c(-c3ccccc3)c2)cc1` [Example 690], for which the “% inhibition … at 1 × 10^-5 M” value is listed as 61%.

`CSCC[C@H](NC(=O)c1ccc(CN(C(=O)c2ccccc2)C(CC2CCCCC2)CC2CCCCC2)cc1-c1ccccc1C)C(=O)O` [Example 910]: the “% inhibition … at 1 × 10^-6 M” value is 42%.
